Measured values taken from article PMC12392461, “Beyond Estrogenicity: A Comparative Assessment of Bisphenol A and Its Alternatives in In Vitro Assays Questions Safety of Replacements” (Environmental Science & Technology, 2025).
Read-outs that look alike come from different tables or passages of the source.

Key:
neuronal stem cells = conditions: ref Liang et al.; cited from earlier work
Tox21 assays = experiment: Re-evaluated Tox21 data (Adamovsky et al.), REPBPA and SRbaseline; conditions: for SRbaseline: Specificity Ratio;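 as to all read-outs here: published Tox21 results reanalysed with a revised model predicting baseline toxicity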
Description: We also reanalyzed the Tox21 data of Adamovsky et al. with the updated baseline toxicity prediction model (Table S2).

ERα [1] = experiment: Literature ERα reporter gene assays (comparison); assay type: cell-based; conditions: for EC10, approx.: in M (unit assumed)
Protocol: S5.4: Comparison with literature data for ERα reporter gene assays
To improve data comparability with our own results we converted reported EC₅₀ to EC₁₀ by dividing by 9, which is the ratio for log-logistic concentration-response curves with a hillslope of 1 (Figure S9a). Additionally, REPBPA values were calculated to enable a more consistent evaluation. Methodological differences between studies must be considered, as Reiniger et al.24 used the YES assay, while Goksøyr et al.25 applied ERα from fish (Figure S9b).
Cyan symbols highlight the ER-UAS-bla GripTite (this study and Tox21GenBLA).
(1 picture or pasted object on this page, not shown here)

ERα [2] = conditions: cited from earlier work
[3] = 15 min
[4] = system: HEK293H, HEK293T, H4IIe, MCF7 and SH-SY5Y cells; conditions: for IC10,Median (M): median cytotoxicity of all cell lines; for IC10, median: median cytotoxicity over all cell lines
Protocol: Cell culture conditions and bioassay protocols including response detection are provided in Text S2.1–2.4 and Table S3. − Cell viability was determined from cell confluency using an IncuCyte S3 Live-Cell Analysis System (Sartorius AG, Essen, Germany) before and after exposure, except for SH-SY5Y cells (live–dead staining with Nuclear Green LcS1 and propidium iodide, Abcam, UK). For metabolic activation experiments, cell viability was assessed using the ToxBLAzer DualScreen Kit (Thermo Fisher Scientific) to capture the remaining toxicity in ERα-UAS-bla GripTite after treatment with the aCYP catalyst (details in Text S2.4).
For ARE, the concentration that triggered an induction ratio of 1.5 (ECIR1.5) was used as the benchmark value, as detailed in Text S2.5. IC10 values also served as a threshold for data analysis in all assays; only concentrations below IC10 were considered when deriving EC10 or ECIR1.5.
TR indicates whether the cytotoxicity is triggered by specific toxicity mechanisms (TR ≥ 10) or not (0.1< TR< 10). 3 TR=IC10,baseline/IC10 We measured the cytotoxicity of BPA and its alternatives in HEK293H (PPARγ), HEK293T (ERα), H4IIe (AhR CALUX), MCF7 (ARE/MMP), and differentiated SH-SY5Y cells (Table S6). […]
medium, supplemented with 2% B-27 Supplement and 2 mM GlutaMAX Supplement. SH - SY5Y cells were differentiated with 10 µM all-trans retinoic acid prior to the assay.
S2.2: Cell Seeding and Incubation. For all bioassays, cell suspensions in the respective assay medium were dispensed into each well of 384-well plates using a MultiFlo Dispenser (Biotek, (now Agilent), Winooski, VT, U.S.). After seeding, the plates were incubated at 37° C and 5% CO₂ for […]. The final cell densities and plate types were as follows: Black poly-D-lysine […]
6500 cells/well, ERα: 5000 cells/well. White 384-well plates with a clear bottom (Product No.
NYC, U.S.) for AhR: 3250 cells/well. Black Collagen I coated plates were used (Product No.
S2.3: Chemical Dosing and Assay Analysis Procedures. The dosing procedure and high-throughput assay workflow have been described in detail before. 9 The dosing concentrations […]
Stock solutions were then either added directly to the respective cell culture medium or evaporated under nitrogen, followed by replenishment with fresh medium. The final solvent content in each well was kept below 1% for methanol, 0% for acetonitrile.
Dosing plates were prepared as 11 -step serial dilutions using a Hamilton Microlab Star robotic system (Hamilton, Bonaduz, Switzerland), and chemicals were dosed in duplicates by transferring 10 μL twice from the dosing plates to the cell plates . After quantifying cell confluency as described in S2. 4., the exposed cells were incubated at 37° C and 5% CO₂ for an additional 24 h. All chemicals were tested in all assays with at least three independent […]
S2.4: Cell Viability Measurement s and bioanalytical protocols . The confluency as a measure of cell viability was determined with an IncuCyte S3 Live -Cell Analysis System (Sartorius AG, Essen, Germany). With this method the confluency of cells in a microscopy image are normalized to control wells without cells and compared before and after 24 hours of exposure.
This method has been described previously 13. Cell viability of SH-SY5Y cells was measured […]
propidium iodide (PI, Abcam, Cambridge, U.K.).14 Nuclear Green LCS1 is a membrane-permeable dye that stains the nuclei of all cells, whereas PI only enters cells with compromised membrane integrity (non-viable cells). After staining, live cells show green nuclei without red fluorescence, while dead cells display both green and red nuclear fluorescence due to PI […]
intercalation. Cell viability was calculated as the proportion of green-only nuclei relative to the […]
For experiments with the preceding aCYP activation, ERα cell viability was additionally calculated from the readout of the ToxBLAzer reagent. The ToxBLAzer assay was conducted following the manufacturer's instructions (Thermo Fisher, Waltham, MA, U.S.).13 Fluorescence

MCF-7 cells = system: MCF-7 cells; design: method as in Singh et al. 2024; conditions: ref Singh et al. 2024; cited from earlier work

O=S(=O)(c1ccc(O)cc1)c1ccc(O)cc1 [BPS, 4,4'-Sulfonyldiphenol]
concentration with significant reduction in average neurite length (neuronal stem cells): 1 nM | SRbaseline (Tox21 assays; ATG_PPARg_TRANS_up): 2973 | REPBPA (Tox21 assays; ATG_chAR_XSP2_up, Relative Effect Potency): 1.00 | SRbaseline (Tox21 assays; ATG_chAR_XSP2_up): 645.8 | SRbaseline (Tox21 assays; ATG_hPPARg_XSP2_up): 3669 | REPBPA (Tox21 assays; TOX21_AR_LUC_MDAKB2_Antagonist_0,5nM_R1881, Relative Effect Potency): 0.0653 | SRbaseline (Tox21 assays; TOX21_AR_LUC_MDAKB2_Antagonist_0,5nM_R1881): 127.8 | REPBPA (Tox21 assays; Tox21BLA, ref Adamovsky et al. 2024): 1.59E-01 | REPBPA (Tox21 assays; Tox21Luc, ref Adamovsky et al. 2024): 1.68E-02 | EC10, approx. (ERα [1]; Atlantic cod estrogen receptor, approximated from literature EC50, ref Goksøyr et al 2024): ~9.26E-06 | REPBPA (ERα [1]; Atlantic cod estrogen receptor, ref Goksøyr et al 2024): 2.28E-02 | EC10, approx. (ERα [1]; approximated from literature EC50, ref Pelch et al 2019): ~1.44E-07 | EC10, approx. (ERα [1]; approximated from literature EC50, ref Reiniger et Oehlmann 2024): ~7.13E-09 | EC10, approx. (ERα [1]; approximated from literature values, ref Kojima et al 2019): ~8.50E-07 | REPBPA (ERα [1]; relative estrogenic potency vs BPA, ref Kojima et al 2019): 4.29E-02 | REPBPA (ERα [1]; relative estrogenic potency vs BPA, ref Pelch et al 2019): 9.23E-01 | REPBPA (ERα [1]; relative estrogenic potency vs BPA, ref Reiniger et Oehlmann 2024): 3.52E+01 | EC50 (ERα [2]; estrogen receptor from Atlantic cod (Gadus morhua), ref Goksøyr et al 2024): 83.3 µM | EC50 (ERα [2]; ref Kojima et al 2019): 5.4 µM | EC50 (ERα [2]; ref Pelch et al 2019): 1.3 µM | Efficacy % (ERα [2]; ref Pelch et al 2019): 61.60% | Efficacy % (ERα [2]; ref Reiniger et Oehlmann 2024): 7.90E+00% | REPBPA,ERα reported in the literature (ERα [2]; ref Text S5.4, Tables S2 and S7): 0.02–1 | % Loss [3]: -2% | IC10,Median (M) [4]: 5.61 × 10^–4 M | IC10, median [4]: 561 µM

Cc1cc(Cc2cc(C)c(O)c(C)c2)cc(C)c1O [TMBPF, Bis(3,5-dimethyl-4-hydroxyphenyl)methane]
cytotoxicity,median REPBPA,IC10 ([4]; median IC10 relative to BPA): 5.51 | IC10,Median (M) [4]: 1.27 × 10^–5 M | IC10, median [4]: 12.7 µM | estrogenicity in MCF-7 cells (MCF-7 cells): inactive in estrogenicity assays using MCF-7 cells
